Data taken from ChEMBL document CHEMBL1133061, “Synthesis of N-diisopropyl phosphoryl benzyltetrahydroisoquinoline, a new class of mitochondrial complexes I and III inhibitors” (Bioorg Med Chem Lett, 2000).

Target: Mitochondrial complex I; NADH oxidoreductase (Bos taurus, UniProt P25708+P52505)
Assay: Inhibitory concentration against NADH oxidase
Type: protein-complex assay

Chain of Mitochondrial complex I; NADH oxidoreductase (P25708 21-464 limits assumed, other chains not shown): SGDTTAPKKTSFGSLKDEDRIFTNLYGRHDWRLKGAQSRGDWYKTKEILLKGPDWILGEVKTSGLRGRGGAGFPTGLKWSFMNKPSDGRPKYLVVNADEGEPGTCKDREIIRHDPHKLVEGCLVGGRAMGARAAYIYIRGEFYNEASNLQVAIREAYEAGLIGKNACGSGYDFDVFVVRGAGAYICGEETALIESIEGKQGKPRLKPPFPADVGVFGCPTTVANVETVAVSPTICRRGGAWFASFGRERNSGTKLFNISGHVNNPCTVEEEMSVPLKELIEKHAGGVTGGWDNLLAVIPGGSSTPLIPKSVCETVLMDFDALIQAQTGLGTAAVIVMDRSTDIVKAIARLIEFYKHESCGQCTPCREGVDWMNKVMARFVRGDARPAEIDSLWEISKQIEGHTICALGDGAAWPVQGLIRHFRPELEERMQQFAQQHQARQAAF

| SMILES | IC50 [nM] |
| --- | --- |
| COc1cc2c(cc1OCc1ccccc1)CCN(P(=O)(OC(C)C)OC(C)C)C2Cc1ccccc1 (centres undefined) | 1690 |
| COc1cc2c(cc1OCc1ccccc1)CCN=C2Cc1ccccc1 | 2910 |
| COc1cc2c(cc1OCc1ccccc1)CCNC2Cc1ccccc1 (centres undefined) | 3880 |
| COc1cc2c(cc1OCc1ccccc1)CCN(C)C2Cc1ccccc1 (centres undefined) | 2700 |
